In this experiment the target is human recombinant H-PGDS (Homo sapiens, UniProt O60760). The experiment is described as follows: Fluorescence intensity h-PGDS TBA enzyme assay (PGH2 depletion, MDA/TBA fluorescence). It counts as biochemical. The conditions noted are these: 1:175,000 human recombinant H-PGDS, 42 second reaction, 3-fold serial dilutions, highest concentration typically 1 μM. How it is done: Fluoresecence Intensity h-PGDSTBA Enzyme Assay
Prostaglandin D Synthase (PGDS) converts the substrate prostaglandin H2 (PGH2) to prostaglandin D2. The depletion of PGH2 was measured via an Fe(II) reduction of the remaining PGH2 to malondialdehyde (MDA) and 12-HHT. The enzyme assay is based on the quantitative formation of a fluorescent complex from the non-fluorescent compounds MDA and 2-thiobarbituric acid (TBA), substantially as described in U.S. patent application publication US-2004/152148 by Lombardt.
The enzyme assay (31 μls) contained 100 mM Tris base pH 8.0, 100 μM MgCl2, 0.1 mg/ml IgG Rabbit serum, 5.0 μM PGH2 (Cayman; ethanol solution, #17020), 2.5 mM L-Glutathione (Sigma; reduced form. #G4251), 1:175,000 human recombinant H-PGDS (from 1 mg/ml), 0.5% DMSO and inhibitor (varying concentration). Three μls of diluted inhibitor (dissolved in DMSO) was plated into a 384-well assay plate followed by a 25 μl addition of an enzyme solution containing h-PGDS, Tris, MgCl2, IgG and L-Glutathione. After preincubation of inhibitor and enzyme solution for 10 minutes at room temperature, the reaction was initiated with a 3 μl addition of substrate solution in 10 mM HCl. The reaction was terminated after 42 second by the addition (3 μl) of stop buffer containing FeCl2 and citric acid. After addition of 45.5 μls of TBA plates were heated for one hour in a 70° C. oven. Plates were cooled at room temperature overnight and read on a plate reader the next day with excitation @ 530 nm and emission @ 565 nm.
IC50' s of inhibitors were calculated with a 4-parameter fit using 11 inhibitor concentrations in duplicate with 3-fold serial dilutions. Controls on each plate included no inhibitor (zero % effect) and an inhibitor 10-fold in excess of its' IC50 (100% effect). The highest inhibitor concentration tested was typically 1 μM.

This passage reports IC50 results from patent US20100173888A1 (Pfizer Inc, priority 2008, published 2010).

human recombinant H-PGDS, sequence (O60760 whole entry): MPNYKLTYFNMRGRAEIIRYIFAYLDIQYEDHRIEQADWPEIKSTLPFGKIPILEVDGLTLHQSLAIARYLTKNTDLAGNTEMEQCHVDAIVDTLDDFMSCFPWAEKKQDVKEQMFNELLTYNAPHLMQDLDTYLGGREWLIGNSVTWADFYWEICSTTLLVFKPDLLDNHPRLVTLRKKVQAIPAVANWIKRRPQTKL

`CN(C)C(=O)N[C@H]1CC[C@@H](NC(=O)c2ccc(-c3cccc(F)c3)nc2)CC1` [Example 234, N-{cis-4-[(Dimethylcarbamoyl)amino]cyclohexyl}-6-(3-fluorophenyl)nicotinamide]: the concentration for half-maximal inhibition (IC50) is 11 nM.

Take `CN(C)C(=O)[C@@H]1CC[C@H](NC(=O)c2ccc(-c3cccc(F)c3)nc2)C1` [Example 163, N-[(1S,3R)-3-(Dimethylcarbamoyl)cyclopentyl]-6-(3-fluorophenyl)nicotinamide]: the IC50 amounted to 6.1 nM.

In the case of `NCC(=O)N[C@H]1CC[C@H](NC(=O)c2ccc(-c3cccc(F)c3)nc2)CC1` [Example 146, 6-(3-Fluorophenyl)-N-[trans-4-(glycylamino)cyclohexyl]nicotinamide], the IC50 amounted to 21 nM.

As to `CN(C)C(=O)[C@@]1(C)CCC[C@@H](NC(=O)c2ccc(-c3cccc(F)c3)nc2)C1` (relative stereo) [Example 237, N-[(1R*,3S*)-3-(Dimethylcarbamoyl)-3-methylcyclohexyl]-6-(3-fluorophenyl)nicotinamide], the IC50 was determined as 5.1 nM.

As to `O=C(N[C@H]1CCCC[C@@H]1O)c1ccc(-c2cccc(F)c2)nc1` [Example 25], the IC50 came to 22.3 nM.

With `Cc1noc(C[C@H]2CC[C@H](NC(=O)c3ccc(-c4cccc(F)c4)nc3)CC2)n1` [Example 261, 6-(3-Fluorophenyl)-N-[trans 4-(3-methyl-[1,2,4]oxadiazol-5-ylmethyl)cyclohexyl]nicotinamide], the IC50 was found to be 4 nM.

`O=C(N[C@@H]1CCC[C@H](CN2CCC2)C1)c1ccc(-c2cccc(F)c2)nc1` (relative stereo) [Example 258]: the IC50 is 29.2 nM.

Regarding `O=C(N[C@H]1CC[C@H]([C@H](O)C2CC2)CC1)c1ccc(-c2cccc(F)c2)nc1` [Example 212, N-[4-trans-((R)-Cyclopropylhydroxymethyl)cyclohexyl]-6-(3-fluorophenyl)nicotinamide], the IC50 was determined as 2.3 nM.

As for `C[C@@H](CO)NC(=O)[C@H]1CCC[C@@H](NC(=O)c2ccc(-c3cccc(F)c3)nc2)C1` [Example 188], the concentration for half-maximal inhibition (IC50) came to 17.1 nM.

On to `CC(C)(O)CNC(=O)[C@@H]1CC[C@H](NC(=O)c2ccc(-c3cccc(F)c3)nc2)C1` [Example 171, 6-(3-Fluorophenyl)-N-{(1S,3R)-3-[(2-hydroxy-2-methylpropyl)carbamoyl]cyclopentyl}nicotinamide], for which the IC50 worked out at 6.3 nM.

“6-(3-Fluorophenyl)-N-(cis-2-hydroxy-2,3-dihydro-1H-inden-1yl]nicotinamide [Example 130]”: the IC50 came to 15.2 nM.

Take `CN(C)C(=O)[C@@H]1CCC[C@@H](NC(=O)c2ccc(-c3cccc(F)c3)nc2)C1` (relative stereo) [Example 238]: the IC50 was found to be 47.1 nM.

Regarding `O=C(NC1CCCCC1)c1ccc(-c2ccccc2)nc1` [Example 21, N-Cyclohexyl-6-phenylnicotinamide], the IC50 turned out to be 1.66 nM.

As for `Cn1nccc1C(=O)NC[C@H]1CCC[C@@H](NC(=O)c2ccc(-c3cccc(F)c3)nc2)C1` (relative stereo) [Example 255], the IC50 was determined as 12.3 nM.

With `N[C@@H]1[C@H]2CN(C(=O)[C@H]3CC[C@H](NC(=O)c4ccc(-c5cccc(F)c5)nc4)CC3)C[C@@H]12` [Example 210, N-(trans-4-{[(1R,5S,6S)-6-Amino-3-azabicyclo[3.1.0]hex-3-yl]carbonyl}cyclohexyl)-6-(3-fluorophenyl)nicotinamide], the IC50 is 9.6 nM.

As for `O=C(N[C@@H]1CCC[C@@H](C(=O)N2CCCC2)C1)c1ccc(-c2cccc(F)c2)nc1` (relative stereo) [Example 239], the IC50 was found to be 34.9 nM.

On to `CN(C)C(=O)CNC(=O)[C@H]1CCC[C@@H](NC(=O)c2ccc(-c3cccc(F)c3)nc2)C1` (relative stereo) [Example 198], for which the IC50 was 19.1 nM.

For `CS(=O)(=O)N[C@H]1CCC[C@H](NC(=O)c2ccc(-c3cccc(F)c3)nc2)C1` (relative stereo) [Example 249, 6-(3-Fluoro-phenyl)-N-trans-(3-methanesulfonylamino-cyclohexyl)-nicotinamide], the 50% inhibitory concentration (IC50) stood at 13.9 nM.

On to `CCN1CCN(C(=O)[C@@]2(C)CCC[C@@H](NC(=O)c3ccc(-c4cccc(F)c4)nc3)C2)CC1` (relative stereo) [Example 233, N-{(1R*,3S*)-3-[(4-Ethylpiperazin-1-yl)carbonyl]-3-methylcyclohexyl}-6-(3-fluorophenyl)nicotinamide], for which the IC50 was 4.1 nM.

As to `NC1CCN(C(=O)[C@H]2CC[C@@H](NC(=O)c3ccc(-c4cccc(F)c4)nc3)C2)CC1` [Example 187], the IC50 came out at 30.7 nM.

In the case of `COC(=O)C1(NC(=O)c2ccc(-c3cccc(OC)c3)nc2)CC1` [Example 4, Methyl 1-({[6-(3-methoxyphenyl)pyridin-3-yl]carbonyl}amino)cyclopropanecarboxylate], the IC50 was not below 1000 nM.

For the molecule `C[C@@H](CO)NC(=O)[C@H]1CCC[C@@H](NC(=O)c2ccc(-c3cccc(F)c3)nc2)C1` [Example 194], the half-maximal inhibitory concentration (IC50) worked out at 14.7 nM.

Regarding `CC(C)(O)C(=O)N[C@H]1CCC[C@H](NC(=O)c2ccc(-c3cccc(F)c3)nc2)C1` (relative stereo) [Example 248, 6-(3-Fluorophenyl)-N-trans-[3-(2-hydroxy-2-methylpropionylamino)cyclohexyl]nicotinamide], the 50% inhibitory concentration (IC50) is 10.4 nM.

Consider `CC(C)(O)C(=O)N[C@H]1CC[C@@H](NC(=O)c2ccc(-c3cccc(F)c3)nc2)CC1` [Example 216, 6-(3-Fluorophenyl)-N-{cis-4-[(2-hydroxy-2-methylpropanoyl)amino]cyclohexyl}nicotinamide], for which the IC50 was 31.8 nM.

For the molecule `CN(C)CCNC(=O)[C@H]1CC[C@@H](NC(=O)c2ccc(-c3cccc(F)c3)nc2)C1` [Example 183], the IC50 came to 75.2 nM.

In the case of `O=C(NC1CCCCC1)c1ccc(-c2cccc(F)c2)nc1` [Example 18, N-Cyclohexyl-6-(3-fluorophenyl)nicotinamide], the IC50 is 7.72 nM.

Consider `O=C(NC1CCC(O)(CN2CCCCC2)CC1)c1ccc(-c2cccc(F)c2)nc1` (centres unmarked) [Example 153, 6-(3-Fluorophenyl)-N-(4-hydroxy-piperidin-1-ylmethylcyclohexyl)nicotinamide], for which the IC50 is 13.2 nM.

On to `O=C(N[C@H]1CC[C@H](C(=O)NC2CCNCC2)CC1)c1ccc(-c2cccc(F)c2)nc1` [Example 201, 6-(3-Fluorophenyl)-N-[trans-4-(piperidin-4-ylcarbamoyl)cyclohexyl]nicotinamide], for which the IC50 came out at 31 nM.

Consider `CN1CCN(CC(=O)N[C@H]2CCC[C@H](NC(=O)c3ccc(-c4cccc(F)c4)nc3)C2)CC1` (relative stereo) [Example 247], for which the IC50 was 57 nM.

Regarding `O=C(N[C@H]1CC[C@@H](O)C1)c1ccc(-c2cccc(F)c2)nc1` (relative stereo) [Example 158, 6-(3-fluorophenyl)-N-[cis-3-hydroxycyclopentyl]nicotinamide], the IC50 worked out at 68.9 nM.

Take `CC(C)(O)C[C@H]1CC[C@H](NC(=O)c2ccc(-c3cccc(F)c3)nc2)CC1` [Example 152, 6-(3-Fluorophenyl)-N-[4-(trans 2-hydroxy-2-methylpropyl)cyclohexyl]nicotinamide]: the IC50 turned out to be 2.2 nM.

For `CN1CCN(C(=O)[C@H]2CC[C@@H](NC(=O)c3ccc(-c4cccc(F)c4)nc3)C2)CC1=O` [Example 182, 6-(3-Fluorophenyl)-N-[(1R,3S)-3-[(4-methyl-3-oxopiperazin-1-yl)carbonyl]cyclopentyl}nicotinamide], the IC50 turned out to be 17.8 nM.

Regarding `O=C(N[C@H]1CC[C@H](C(=O)NCCN2CCCCC2)CC1)c1ccc(-c2cccc(F)c2)nc1` [Example 113H, 6-(3-fluorophenyl)-N-{trans-4-[(2-piperidin-1-ylethyl)carbamoyl]cyclohexyl}nicotinamide], the IC50 amounted to 46 nM.

Turning to `CC(C)(CCO)NC(=O)[C@@H]1CC[C@H](NC(=O)c2ccc(-c3cccc(F)c3)nc2)C1` [Example 172, 6-(3-Fluorophenyl)-N-{(1S,3R)-3-[(3-hydroxy-1,1-dimethylpropyl)carbamoyl]cyclopentyl}nicotinamide], the IC50 was 6.4 nM.

For the molecule `CNC(=O)N[C@H]1CC[C@H](NC(=O)c2ccc(-c3cccc(F)c3)nc2)CC1` [Example 270], the half-maximal inhibitory concentration (IC50) stood at 9.1 nM.

For `C[C@H](O)C(=O)N[C@H]1CC[C@H](NC(=O)c2ccc(-c3cccc(F)c3)nc2)CC1` [Example 144, 6-(3-Fluorophenyl)-N-(trans-4-{[(2S)-2-hydroxypropanoyl]amino}cyclohexyl)nicotinamide], the IC50 was 7.5 nM.

For `CN1CCN(CC(=O)N[C@@H]2CCC[C@H](NC(=O)c3ccc(-c4cccc(F)c4)nc3)C2)CC1` (relative stereo) [Example 204], the IC50 was determined as 68.7 nM.

As for `C[C@]1(C(=O)O)CCC[C@@H](NC(=O)c2ccc(-c3cccc(F)c3)nc2)C1` (relative stereo) [Example 231, (1S*,3R*)-3-({[6-(3-Fluorophenyl)pyridin-3-yl]carbonyl}amino)-1-methylcyclohexane carboxylic acid], the IC50 is 13.8 nM.

What is called IC50 is the point on the concentration scale where inhibition reaches its midpoint.
